Assay results: publication PMC3607822 (The Journal of General Physiology, 2013)
Read-outs that look alike come from different tables or passages of the source. Values belong to the compound of their own block, whether it stands above or below them.

Tests used:
Type in all cases: biochemical
[1] = molecular target: T1, human CNGA3 wild-type homomeric channels (Homo sapiens, UniProt Q16281); assay: Inside-out patch clamp, homomeric CNGA3 wild type expressed in X. laevis oocytes
T1 sequence (Q16281 1-694): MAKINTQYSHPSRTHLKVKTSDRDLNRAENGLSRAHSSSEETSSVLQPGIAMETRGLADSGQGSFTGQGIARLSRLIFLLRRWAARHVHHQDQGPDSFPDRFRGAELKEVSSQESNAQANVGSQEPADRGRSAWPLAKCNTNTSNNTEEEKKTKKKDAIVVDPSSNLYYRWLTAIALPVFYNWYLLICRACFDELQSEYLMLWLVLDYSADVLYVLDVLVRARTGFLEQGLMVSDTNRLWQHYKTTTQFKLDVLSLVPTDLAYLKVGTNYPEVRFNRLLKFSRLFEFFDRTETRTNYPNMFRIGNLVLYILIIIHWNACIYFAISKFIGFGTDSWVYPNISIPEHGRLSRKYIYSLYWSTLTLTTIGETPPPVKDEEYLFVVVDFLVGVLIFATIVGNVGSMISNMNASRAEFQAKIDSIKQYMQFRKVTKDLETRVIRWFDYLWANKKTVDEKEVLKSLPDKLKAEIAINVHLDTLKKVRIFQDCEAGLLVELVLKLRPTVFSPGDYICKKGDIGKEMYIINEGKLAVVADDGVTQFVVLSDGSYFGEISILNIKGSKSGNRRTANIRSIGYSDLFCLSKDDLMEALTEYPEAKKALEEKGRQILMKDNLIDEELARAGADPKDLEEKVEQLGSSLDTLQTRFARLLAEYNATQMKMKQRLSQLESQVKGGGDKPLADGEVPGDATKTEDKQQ

[2] = molecular target: T2, CNGA3 N7R-A, 613X channels (Homo sapiens, UniProt Q16281, R101A/R103A/R72A/R75A/R81A/R82A/R86A); assay: Inside-out patch clamp, CNGA3 N7R-A, 613X
T2 sequence (Q16281 1-612 R72A/R75A/R81A/R82A/R86A/R101A/R103A limits assumed): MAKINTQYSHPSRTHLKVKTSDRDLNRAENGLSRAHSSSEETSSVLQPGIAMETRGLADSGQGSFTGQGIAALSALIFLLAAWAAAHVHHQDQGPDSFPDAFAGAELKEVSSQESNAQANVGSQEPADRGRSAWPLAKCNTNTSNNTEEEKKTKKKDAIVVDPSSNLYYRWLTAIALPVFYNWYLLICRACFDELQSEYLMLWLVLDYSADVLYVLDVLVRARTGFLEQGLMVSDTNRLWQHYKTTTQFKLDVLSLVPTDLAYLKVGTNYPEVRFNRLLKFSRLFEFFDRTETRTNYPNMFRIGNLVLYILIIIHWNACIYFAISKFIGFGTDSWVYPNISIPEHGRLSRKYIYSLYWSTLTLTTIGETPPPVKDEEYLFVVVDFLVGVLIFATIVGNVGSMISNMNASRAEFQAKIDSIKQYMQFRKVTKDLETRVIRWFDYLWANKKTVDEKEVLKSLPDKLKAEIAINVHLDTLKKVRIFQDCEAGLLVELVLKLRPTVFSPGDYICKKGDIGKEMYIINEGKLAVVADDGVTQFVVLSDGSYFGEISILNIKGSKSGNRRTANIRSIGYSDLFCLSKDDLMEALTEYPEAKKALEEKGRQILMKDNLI

[3] = molecular target: T3, heteromeric CNGA3+CNGB3 channels (Homo sapiens, UniProt Q16281+Q9NQW8); assay: Inside-out patch clamp, heteromeric CNGA3+CNGB3; settings: for EC50: read-out: K1/2 cGMP
T3 sequence (Q16281 1-694): T1 sequence (Q16281 1-694)
T3 sequence (Q9NQW8 1-809): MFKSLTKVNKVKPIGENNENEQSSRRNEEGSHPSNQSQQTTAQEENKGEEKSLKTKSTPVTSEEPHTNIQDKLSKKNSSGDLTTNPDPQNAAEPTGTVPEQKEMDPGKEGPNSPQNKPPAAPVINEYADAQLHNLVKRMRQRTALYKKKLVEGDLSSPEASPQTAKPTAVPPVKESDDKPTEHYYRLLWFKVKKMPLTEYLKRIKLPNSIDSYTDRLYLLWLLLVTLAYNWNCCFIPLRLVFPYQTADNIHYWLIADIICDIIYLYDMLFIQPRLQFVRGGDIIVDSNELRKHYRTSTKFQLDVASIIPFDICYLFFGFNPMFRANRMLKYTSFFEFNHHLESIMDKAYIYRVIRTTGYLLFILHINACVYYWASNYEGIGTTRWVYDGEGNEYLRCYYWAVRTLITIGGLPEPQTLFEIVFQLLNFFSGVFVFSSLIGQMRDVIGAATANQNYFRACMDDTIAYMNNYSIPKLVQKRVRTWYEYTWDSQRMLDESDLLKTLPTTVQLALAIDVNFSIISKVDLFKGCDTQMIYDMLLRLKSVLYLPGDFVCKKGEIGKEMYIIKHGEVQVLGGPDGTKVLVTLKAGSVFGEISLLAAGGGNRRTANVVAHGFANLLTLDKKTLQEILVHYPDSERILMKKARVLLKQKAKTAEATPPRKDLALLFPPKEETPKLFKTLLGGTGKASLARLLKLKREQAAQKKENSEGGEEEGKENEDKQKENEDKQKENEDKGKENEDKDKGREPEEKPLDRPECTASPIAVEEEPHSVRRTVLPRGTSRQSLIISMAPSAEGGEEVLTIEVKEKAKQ

[4] = read-out: K1/2 cGMP, +80 mV, no PIPn
[5] = representative patch, before PIP2
[6] = representative patch, before PIP3
[7] = mean, after 1 µM PIP3 or 10 µM PIP2
[8] = representative patch, after PIP3 or PIP2

Hill coefficient ([1]; cGMP activation): 1.91 ± 0.04 (18)
Po max cGMP ([1]; estimated from state-dependent block by tetracaine): ~0.99
EC50 [1, 4]: 9.29 ± 0.43 µM
Hill coefficient ([2]; cGMP activation): 1.82 ± 0.04 (6)
EC50 [2, 4]: 16.4 ± 1.65 µM
Hill coefficient h ([3]; mean, before PIPn): 1.9
EC50 ([3]; mean, before PIPn): 13.5 ± 0.6 µM
EC50 [3, 5]: 12.8 µM
EC50 [3, 6]: 16.1 µM
Hill coefficient h [3, 5]: 1.8
Hill coefficient h [3, 6]: 2.05
Compound: Nc1nc2c(ncn2[C@@H]2O[C@@H]3COP(=O)(O)O[C@H]3[C@H]2O)c(=O)[nH]1 [cGMP, cyclic guanosine monophosphate]

fold increase Imax cAMP/cGMP ([1]; 1 µM PIP3 after prior application of cyto D): 2.54 ± 0.27 fold
fold increase in Imax cAMP/cGMP ([1]; 10 µM phosphoinositide applied to inside-out patch): 2.63 ± 0.13 fold
effect on maximal cGMP current ([1]; 1 mM cGMP): not significantly altered
K1/2 cAMP after phosphoinositide ([1]; apparent cAMP affinity after PIP3 or PIP2 application): 1.16 ± 0.06 mM
Po max cAMP after PIP3 ([1]; fluctuation analysis): 0.37 ± 0.07
Po max cGMP after PIP3 ([1]; fluctuation analysis): 0.93 ± 0.01
fold change in K1/2 cGMP after PIP3 ([2]; 10 µM PIP3): 1.02 ± 0.05 fold
fold shift of K1/2 cGMP to higher concentration ([3]; 1 µM PIP3): ~1.5 fold
effect on currents elicited by 5 µM cGMP ([3]; 1 µM PIP3 or 10 µM PIP2): attenuated the currents
Imax cAMP/cGMP after phosphoinositide ([3]; after PIP2 or PIP3 application): 0.30 ± 0.03
Hill coefficient h after phosphoinositide [3, 7]: 1.6
K1/2 cGMP after phosphoinositide [3, 7]: 20.8 ± 1.4 µM
Hill coefficient h after phosphoinositide [3, 8]: 2.0
K1/2 cGMP after phosphoinositide [3, 8]: 26.5 µM
Imax cGMP compared with initial values ([3]; saturating cGMP, after 1 µM PIP3 or 10 µM PIP2): 95.4 ± 2.8%
Compound: phosphatidylinositol (3,4,5)-trisphosphate [PIP3]
